{"source": "patent US10004754B2", "about": "“ANP fragment adjuvant therapy to standard of care (SOC) diuretic treatment” (MADELEINE PHARMACEUTICALS PTY LTD, priority 2014, dated 2018)", "assay_type_in_all_cases": "in vivo, human", "key": {"stable CHF patients [1]": {"tested_on": "stable CHF patients", "experiment": "Cardiovascular haemodynamics (Swan-Ganz catheterisation) with sc VSDL infusion, Example 2", "conditions": "for Cardiac Output, Mean / Cardiac Output, Median: baseline 4.7; for systemic vascular resistance: baseline=3076+929", "method": "(§1) A second study was conducted with a population of eighteen (18) test adult CHF patients, both male and female, in order to further evaluate the improvement in renal and cardiac function in stable CHF patients given VSDL (by sc administration) in addition to standard of care (SOC) treatment.\n(§2) Participants were selected on the basis of the Inclusion and Exclusion criteria given in Example 1. […] In addition, selected patients were required to have a plasma brain natriuretic peptide (BNP) concentration of ≥100 pg/mL and a GFR ≥25 mL/min and <70 mL/min as calculated by the Cockroft Gault calculation (ie moderate renal impairment). On the other hand, the presence of acute MI (ie as indicated by ST elevation and/or elevation of Troponin-T) or evidence of MI or other high risk acute coronary syndrome within the past 6 weeks, hypotension (ie systolic blood pressure (SBP) <90 mmHg), persistent and/or uncontrolled hypertension (SBP>180 mmHg), cardiogenic shock or any other clinical condition that would contraindicate administration of an agent with potent vasodilatory effects, excluded patients from participating in the study. Participants in this study also had standard exclusion criteria that accompany pulmonary artery (SG) catheterisation.\n(§3) The study was an open-label, sequential group, continuous sc infusion study conducted at a single centre. Two steady-state concentration levels (Css) of VSDL were targeted, approximately 10 ng/mL (n=2 lead-in, and n=10, cohort 1) and 20 ng/mL (n=6, cohort 2). The two lead-in patients were treated with similar dose regimens to confirm that the measured plasma concentrations were in agreement with the targeted Css. Two patients from cohort 1 and all 6 patients from cohort 2 underwent pulmonary artery Swan-Ganz (SG) catheterisation to enable haemodynamic monitoring.\n(§4) VSDL prepared as described in Example 1, was administered via sc 6 or 12 hour infusion into the lower abdomen at a maximum volume rate of 350 μL/hr (ie approximately 6 μL/min). The rate of infusion of VSDL for the targeted Css level of 10 ng/mL was either 900 μg/hr (0.3 mL/hr) for 12 hrs or a bimodal infusion of 900 μg/hr for 5 hrs followed by 550 μg/hr (0.18 mL/hr) for 7 hrs. The rate of infusion of VSDL for the targeted Css level of 20 ng/mL was bimodal; 1800 μg/hr (0.20 mL/hr) for 5 hrs followed by 1100 μg/hr (0.12 mL/hr) for 7 hrs (see WO 2014/138796). For the lead-in patients, the infusions were performed at 900 μg/hr for 6 hrs.\n(§5) R Studio (version 4) and GraphPad Prism (GraphPad Software, version 6) were used for all statistical analyses. Statistically significant changes from base line for all parameters were tested using with linear mixed effects model or one-way repeated measures ANOVA with Bonferroni correction. A p value of 0.05 was set for statistically significant differences. All data are reported as mean±s.d or mean (95% CI)."}, "stable CHF patients [2]": {"tested_on": "stable CHF patients", "conditions": "for Diastolic Blood Pressure: baseline 65 ± 10; for Diastolic Blood Pressure / Systolic Blood Pressure: with SOC; for Systolic Blood Pressure: baseline 119 ± 15", "method": "VSDL in the form of a white lyophilised powder (synthesised using standard protein synthesis method by Auspep Pty Ltd, Parkville, VIC, Australia), stored in an ultra-low freezer (−80° C.), was reconstituted in a vial with 10 ml of 0.9% saline (preservative free) and aseptically transferred into a 20 ml syringe (that connects to a cannula) before use.\nA first study was conducted with a cohort of eight (8) test adult patients, both male and female, with a history of stable, chronic congestive heart failure and moderate renal impairment that had been selected on the basis of the following Inclusion and Exclusion criteria:\nAll patients underwent existing standard of care (SOC) treatment for the condition for which they presented. These treatments were diuretic therapy (ie administration with furosemide or spironolactone) and an antihypertensive drug(s) (eg an Angiotensin Converting Enzyme (ACE) inhibitor, beta blocker agent and calcium channel blocker agent). […]"}, "stable CHF patients [3]": {"tested_on": "stable CHF patients", "experiment": "Blood pressure during and after continuous sc VSDL infusion, Example 2", "conditions": "for average drop in blood pressure, diastolic / average drop in blood pressure, systolic: during the 24 hour time period; for mean drop in blood pressure, diastolic / mean drop in blood pressure, systolic: throughout the 12 hour infusion period", "method": "as §1, §2, §3, §4, §5"}, "[4]": {"conditions": "lead-in patients, 900 μg/hr sc for 6 hours, up to 24 hours post infusion"}, "[5]": {"conditions": "patients with baseline blood pressures ≤105/60 mmHg, during the infusion"}}, "note": "Where two headings read alike, the source gives them in different places. Where no end group is shown, it is not given here.", "data": [{"sequence": "EVVPPQVLSEPNEEAGAALSPLPEVPPWTGEVSPAQR [VSDL]", "values": [{"measurement": "Cardiac Output, Mean", "setting": "stable CHF patients [1]; >0.5-6 hrs", "result": 4.6, "unit": "L/min"}, {"measurement": "Cardiac Output, Median", "setting": "stable CHF patients [1]; >0.5-6 hrs", "result": 4.2, "unit": "L/min"}, {"measurement": "Cardiac Output, Mean", "setting": "stable CHF patients [1]; >6-12 hrs", "result": 4.9, "unit": "L/min"}, {"measurement": "Cardiac Output, Median", "setting": "stable CHF patients [1]; >6-12 hrs", "result": 4.3, "unit": "L/min"}, {"measurement": "Cardiac Output, Mean", "setting": "stable CHF patients [1]; >12-24 hrs", "result": 5.0, "unit": "L/min"}, {"measurement": "Cardiac Output, Median", "setting": "stable CHF patients [1]; >12-24 hrs", "result": 4.4, "unit": "L/min"}, {"measurement": "pulmonary capillary wedge pressure", "setting": "stable CHF patients [1]; adjuvant VSDL treatment, limited patient numbers to date", "result": "either decreased or unchanged"}, {"measurement": "pulmonary vascular resistance", "setting": "stable CHF patients [1]; infusion of VSDL", "result": "no changes"}, {"measurement": "increase in cardiac output on average above baseline (regression of cardiac output on time)", "setting": "stable CHF patients [1]; t=3.16, p≤0.05, FIG. 1", "result": 0.000472, "unit": "L/min"}, {"measurement": "systemic vascular resistance", "setting": "stable CHF patients [1]; ≥0.5-6 hs", "result": "2658+676 dyn·s/cm^5"}, {"measurement": "systemic vascular resistance", "setting": "stable CHF patients [1]; ≥6-12 hs", "result": "2529+509 dyn·s/cm^5"}, {"measurement": "systemic vascular resistance", "setting": "stable CHF patients [1]; ≥12-24 hs", "result": "2485+645 dyn·s/cm^5"}, {"measurement": "Diastolic Blood Pressure", "setting": "stable CHF patients [2]; 10 ng/kg column", "result": "64 ± 7", "unit": "mmHg"}, {"measurement": "Systolic Blood Pressure", "setting": "stable CHF patients [2]; 10 ng/kg column", "result": "122 ± 10", "unit": "mmHg"}, {"measurement": "Diastolic Blood Pressure", "setting": "stable CHF patients [2]; 20 ng/kg column", "result": "65 ± 6", "unit": "mmHg"}, {"measurement": "Systolic Blood Pressure", "setting": "stable CHF patients [2]; 20 ng/kg column", "result": "115 ± 19", "unit": "mmHg"}, {"measurement": "symptomatic hypotension", "setting": "stable CHF patients [2]; human, in vivo, sc", "result": "none of these resulted in symptomatic hypotension"}, {"measurement": "change in systolic and diastolic blood pressures", "setting": "stable CHF patients [2]; stable CHF patients, sc bolus VSDL with SOC, p < 0.05", "result": "significant drop"}, {"measurement": "Diastolic Blood Pressure", "setting": "stable CHF patients [3]; 10 ng/ml cohort, 0.5-6 hs, baseline 61 ± 8", "result": "64 ± 8", "unit": "mmHg"}, {"measurement": "Systolic Blood Pressure", "setting": "stable CHF patients [3]; 10 ng/ml cohort, 0.5-6 hs, baseline 116 ± 10", "result": "121 ± 11", "unit": "mmHg"}, {"measurement": "Diastolic Blood Pressure", "setting": "stable CHF patients [3]; 10 ng/ml cohort, >6-12 hs, baseline 61 ± 8", "result": "65 ± 7", "unit": "mmHg"}, {"measurement": "Systolic Blood Pressure", "setting": "stable CHF patients [3]; 10 ng/ml cohort, >6-12 hs, baseline 116 ± 10", "result": "125 ± 10", "unit": "mmHg"}, {"measurement": "Diastolic Blood Pressure", "setting": "stable CHF patients [3]; 10 ng/ml cohort, >12-24 hs, baseline 61 ± 8", "result": "62 ± 7", "unit": "mmHg"}, {"measurement": "Systolic Blood Pressure", "setting": "stable CHF patients [3]; 10 ng/ml cohort, >12-24 hs, baseline 116 ± 10", "result": "118 ± 10", "unit": "mmHg"}, {"measurement": "average drop in blood pressure, diastolic", "setting": "stable CHF patients [3]; 10 ng/ml cohort", "result": "−5", "unit": "mmHg"}, {"measurement": "average drop in blood pressure, systolic", "setting": "stable CHF patients [3]; 10 ng/ml cohort", "result": "−8", "unit": "mmHg"}, {"measurement": "mean drop in blood pressure, diastolic", "setting": "stable CHF patients [3]; 10 ng/ml cohort", "result": "−6", "unit": "mmHg"}, {"measurement": "mean drop in blood pressure, systolic", "setting": "stable CHF patients [3]; 10 ng/ml cohort", "result": "−8", "unit": "mmHg"}, {"measurement": "Diastolic Blood Pressure", "setting": "stable CHF patients [3]; 20 ng/ml cohort, 0.5-6 hs, baseline 71 ± 12", "result": "66 ± 6", "unit": "mmHg"}, {"measurement": "Systolic Blood Pressure", "setting": "stable CHF patients [3]; 20 ng/ml cohort, 0.5-6 hs, baseline 124 ± 21", "result": "116 ± 17", "unit": "mmHg"}, {"measurement": "Diastolic Blood Pressure", "setting": "stable CHF patients [3]; 20 ng/ml cohort, >6-12 hs, baseline 71 ± 12", "result": "67 ± 6", "unit": "mmHg"}, {"measurement": "Systolic Blood Pressure", "setting": "stable CHF patients [3]; 20 ng/ml cohort, >6-12 hs, baseline 124 ± 21", "result": "118 ± 20", "unit": "mmHg"}, {"measurement": "Diastolic Blood Pressure", "setting": "stable CHF patients [3]; 20 ng/ml cohort, >12-24 hs, baseline 71 ± 12", "result": "64 ± 6", "unit": "mmHg"}, {"measurement": "Systolic Blood Pressure", "setting": "stable CHF patients [3]; 20 ng/ml cohort, >12-24 hs, baseline 124 ± 21", "result": "116 ± 21", "unit": "mmHg"}, {"measurement": "average drop in blood pressure, diastolic", "setting": "stable CHF patients [3]; 20 ng/ml cohort", "result": "−8", "unit": "mmHg"}, {"measurement": "average drop in blood pressure, systolic", "setting": "stable CHF patients [3]; 20 ng/ml cohort", "result": "−13", "unit": "mmHg"}, {"measurement": "mean drop in blood pressure, diastolic", "setting": "stable CHF patients [3]; 20 ng/ml cohort", "result": "−7", "unit": "mmHg"}, {"measurement": "mean drop in blood pressure, systolic", "setting": "stable CHF patients [3]; 20 ng/ml cohort", "result": "−14", "unit": "mmHg"}, {"measurement": "drops in mean blood pressures from baseline, based on post infusion time", "setting": "stable CHF patients [3]; all VSDL-treated patients, p=0.4", "result": "no significant drops"}, {"measurement": "systolic and diastolic blood pressures, regression on concentration of VSDL", "setting": "stable CHF patients [3]; at higher VSDL concentrations, p=0.005, FIGS. 5A and B", "result": "significant decrease"}, {"measurement": "change in blood pressure", "setting": "stable CHF patients [3]; lead-in patients, 900 μg/hr sc for 6 hours", "result": "no significant change"}, {"measurement": "mean diastolic blood pressure", "setting": "stable CHF patients [3]; [4]", "result": "66±3", "unit": "mmHg"}, {"measurement": "mean systolic blood pressure", "setting": "stable CHF patients [3]; [4]", "result": "114±6", "unit": "mmHg"}, {"measurement": "Diastolic Blood Pressure", "setting": "stable CHF patients [3]; patients with BP ≤ 105 mmHg, 0.5-6 hs, baseline 57 ± 6", "result": "61 ± 7", "unit": "mmHg"}, {"measurement": "Systolic Blood Pressure", "setting": "stable CHF patients [3]; patients with BP ≤ 105 mmHg, 0.5-6 hs, baseline 97 ± 8", "result": "106 ± 17", "unit": "mmHg"}, {"measurement": "Diastolic Blood Pressure", "setting": "stable CHF patients [3]; patients with BP ≤ 105 mmHg, >6-12 hs, baseline 57 ± 6", "result": "64 ± 8", "unit": "mmHg"}, {"measurement": "Systolic Blood Pressure", "setting": "stable CHF patients [3]; patients with BP ≤ 105 mmHg, >6-12 hs, baseline 97 ± 8", "result": "113 ± 25", "unit": "mmHg"}, {"measurement": "Diastolic Blood Pressure", "setting": "stable CHF patients [3]; patients with BP ≤ 105 mmHg, >12-24 hs, baseline 57 ± 6", "result": "62 ± 6", "unit": "mmHg"}, {"measurement": "Systolic Blood Pressure", "setting": "stable CHF patients [3]; patients with BP ≤ 105 mmHg, >12-24 hs, baseline 97 ± 8", "result": "109 ± 20", "unit": "mmHg"}, {"measurement": "drop in blood pressures", "setting": "stable CHF patients [3]; patients with baseline blood pressures ≤105/60 mmHg", "result": "no significant drop"}, {"measurement": "average blood pressure drop, diastolic", "setting": "stable CHF patients [3]; [5]", "result": "−3", "unit": "mmHg"}, {"measurement": "average blood pressure drop, systolic", "setting": "stable CHF patients [3]; [5]", "result": "−4", "unit": "mmHg"}]}]}
